For five compounds, DC50 and Dmax results are on record in patent US20260317324A1, “BIFUNCTIONAL COMPOUNDS FOR DEGRADING BRAF VIA UBIQUITIN PROTEOSOME PATHWAY” (Nurix Therapeutics, Inc., priority 2023, published 2026).

Some results are limits rather than exact numbers.

Common to all, as to assay type: cell-based
The target in assay [1] is T1, BRAF V600E (Homo sapiens, UniProt P15056, V600E).
T1 construct: endogenous C-terminal HiBiT fusion tag on BRAF V600E allele; endogenous in cells; host or cells: A375 clone 1F10 (CRISPR-Cas9 knock-in of the HiBiT tag; parental A375 from ATCC)
Nature of the assay: BRAF HiBiT degradation assay, C-terminal HiBiT-tagged BRAF V600E A375 cells (clone 1F10), Nano-Glo HiBiT Lytic assay. The note with it: for Dmax: A-375. A digest of the protocol:
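Luminescence read-out: Nano-Glo HiBiT lytic reagent with LgBiT, 10 min at room temperature. Signal normalised to DMSO-treated tagged cells, with wildtype A375 as background. Cells are endogenously tagged BRAF V600E A375 clone 1F10. Compounds were tested from 1 μM to 0.01 nM; Dmax is observed % degraded at maximal effect.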
For orientation: The HiBiT peptide binds its large partner to form an active luciferase.

Assay [2] deals with T2, BRAF G466V (Homo sapiens, UniProt P15056, G466V).
T2 construct: Horizon Discovery (HCT-116 BRAF−/− cells); host or cells: HCT-116 BRAF−/− cells, clone 8, lentiviral transduction
The experiment in a line: BRAF HiBiT degradation assay, C-terminal HiBiT-tagged BRAF G466V overexpressed in HCT-116 BRAF−/− cells (clone 8), Nano-Glo HiBiT Lytic assay. The method, boiled down: (§1)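 Cells 3,000/well, 24 h at 37 °C; cpds 1 μM–0.01 nM, 11-pt half-log, duplicate, 0.2% DMSO. Readout: HiBiT lytic luminescence, 10 min at RT. Normalized to DMSO-treated tagged cells, with DMSO-treated wild-type HCT-116 as background. DC50 = fitted concentration at Y=50; Obs. Dmax = % degraded at maximal effect.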

The target in assay [3] is T3, BRAF G469A (Homo sapiens, UniProt P15056, G469A).
T3 construct: Horizon Discovery (HCT-116 BRAF−/− cells); host or cells: HCT-116 BRAF−/− cells, clone 34, lentiviral transduction
The experiment in a line: BRAF HiBiT degradation assay, C-terminal HiBiT-tagged BRAF G469A overexpressed in HCT-116 BRAF−/− cells (clone 34), Nano-Glo HiBiT Lytic assay. A digest of the protocol: as §1

Assay [4] addresses T4, BRAF D594G (Homo sapiens, UniProt P15056, D594G).
T4 construct: Horizon Discovery (HCT-116 BRAF−/− cells); host or cells: HCT-116 BRAF−/− cells, clone 63, lentiviral transduction
Nature of the assay: BRAF HiBiT degradation assay, C-terminal HiBiT-tagged BRAF D594G overexpressed in HCT-116 BRAF−/− cells (clone 63), Nano-Glo HiBiT Lytic assay. The method, boiled down: as §1

[5] abbreviates: A375 (BRAF V600E), DC50 at 50%: fitted conc. at Y=50.
Setting [6] is: A375 (BRAF V600E), percentage protein degraded at maximal compound effect relative to DMSO.
Setting [7] is: BRAF G466V, DC50 at 50%: fitted conc. at Y=50.
Setting [8] is: HCT-116, BRAF G466V, percentage protein degraded at maximal compound effect relative to DMSO.
Setting [9] is: Class 2, BRAF G469A, DC50 at 50%: fitted conc. at Y=50.
Setting [10] is: HCT-116, Class 2, BRAF G469A, percentage protein degraded at maximal compound effect relative to DMSO.
Setting [11] is: BRAF D594G, DC50 at 50%: fitted conc. at Y=50.
[12] abbreviates: HCT-116, BRAF D594G, percentage protein degraded at maximal compound effect relative to DMSO.
Setting [13] is: A375 (BRAF V600E, Class 1), DC50 at 50% degradation.
[14] abbreviates: A375 (BRAF V600E, Class 1), observed Dmax, % protein degraded relative to DMSO control.
Where [15] appears, read: BRAF G466V (Class 3), HCT-116 BRAF−/− cells, DC50 at 50% degradation.
[16] abbreviates: BRAF G466V (Class 3), HCT-116 BRAF−/− cells, observed Dmax relative to DMSO control.
Where [17] appears, read: BRAF G469A (Class 2), HCT-116 BRAF−/− cells, DC50 at 50% degradation.
Where [18] appears, read: BRAF G469A (Class 2), HCT-116 BRAF−/− cells, observed Dmax relative to DMSO control.
The mark [19] stands for this setting: BRAF D594G (Class 3), HCT-116 BRAF−/− cells, DC50 at 50% degradation.
[20] abbreviates: BRAF D594G (Class 3), HCT-116 BRAF−/− cells, observed Dmax relative to DMSO control.

T4 sequence (P15056 whole entry D594G): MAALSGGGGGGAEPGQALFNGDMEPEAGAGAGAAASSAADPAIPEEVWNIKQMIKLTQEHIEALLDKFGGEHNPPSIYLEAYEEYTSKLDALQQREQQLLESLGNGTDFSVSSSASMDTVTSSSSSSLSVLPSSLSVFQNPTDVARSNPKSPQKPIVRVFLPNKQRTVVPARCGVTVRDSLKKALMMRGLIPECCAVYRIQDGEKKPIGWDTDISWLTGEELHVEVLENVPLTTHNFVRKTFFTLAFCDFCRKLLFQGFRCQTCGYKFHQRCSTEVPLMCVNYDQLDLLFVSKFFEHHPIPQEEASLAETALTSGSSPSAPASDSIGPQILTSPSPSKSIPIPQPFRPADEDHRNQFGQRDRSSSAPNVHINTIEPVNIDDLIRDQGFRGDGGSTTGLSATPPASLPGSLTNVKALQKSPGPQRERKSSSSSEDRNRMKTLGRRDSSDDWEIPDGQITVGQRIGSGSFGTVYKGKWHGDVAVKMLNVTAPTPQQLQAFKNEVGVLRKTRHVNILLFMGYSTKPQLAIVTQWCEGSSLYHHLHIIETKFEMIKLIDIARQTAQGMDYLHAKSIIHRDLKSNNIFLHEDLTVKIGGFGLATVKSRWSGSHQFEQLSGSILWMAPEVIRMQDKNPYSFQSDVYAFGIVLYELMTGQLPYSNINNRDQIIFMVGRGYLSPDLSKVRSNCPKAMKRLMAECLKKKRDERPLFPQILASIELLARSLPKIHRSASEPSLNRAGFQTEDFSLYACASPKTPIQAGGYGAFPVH
T3 sequence (P15056 whole entry G469A): as the sequence (P15056 whole entry D594G) above, with G469A, G594D counted along it
T1 sequence (P15056 whole entry V600E, the tested form may be a part): as the sequence (P15056 whole entry D594G) above, with G594D, V600E counted along it
T2 sequence (P15056 whole entry G466V): as the sequence (P15056 whole entry D594G) above, with G466V, G594D counted along it

Broadly, the DC50 is the concentration giving 50% degradation. Low readings indicate a more potent degrader, high ones a less potent degrader. For orientation: Dmax means the largest share of the target that was removed. Consider `CCCS(=O)(=O)Nc1cccc(-c2nc(C3CCN(C(=O)C4CCN(C(=O)C5CCN(c6ccc(C7CCC(=O)NC7=O)cn6)CC5)CC4)CC3)sc2-c2ccncc2)c1F` (racemic) [Compound 210, Rac-N-[3-(2-{1-[1-(1-{5-[(3R)-2,6-dioxopiperidin-3-yl]pyridin-2-yl}piperidine-4-carbonyl)piperidine-4-carbonyl]piperidin-4-yl}-5-(pyridin-4-yl)-1,3-thiazol-4-yl)-2-fluorophenyl]propane-1-sulfonamide], for which the DC50 is less than 10 nM in assay [1] (setting [5]), less than 10 nM in assay [2] (setting [7]), 50 to 500 nM in assay [3] (setting [9]) and less than 10 nM in assay [4] (setting [11]). The Dmax in assay [1] (setting [6]) was greater than 70%; in assay [2] (setting [8]) it was 30 to 70%; in assay [3] (setting [10]), 30 to 70%; in assay [4] (setting [12]), 30 to 70%.
Regarding `O=C1CC[C@H](c2ccc(N3CCC(CN4CCN(c5ccc(-n6cc(-c7cc(Cl)cc(NS(=O)(=O)N8CCCC8)c7F)c(-c7ccncc7)n6)cn5)CC4)CC3)cc2)C(=O)N1` [Compound 351, N-{5-chloro-3-[1-(6-{4-[(1-{4-[(3R)-2,6-dioxopiperidin-3-yl]phenyl}piperidin-4-yl)methyl]piperazin-1-yl}pyridin-3-yl)-3-(pyridin-4-yl)-1H-pyrazol-4-yl]-2-fluorophenyl}pyrrolidine-1-sulfonamide], the DC50 in assay [1] (setting [13]) was less than 10 nM; in assay [2] (setting [15]) it was less than 10 nM; in assay [3] (setting [17]), 10 to 50 nM; in assay [4] (setting [19]), less than 10 nM. Further, the Dmax in assay [1] (setting [14]) was greater than 70%; in assay [2] (setting [16]), greater than 70%; in assay [3] (setting [18]) it was 30 to 70%; in assay [4] (setting [20]) it was 30 to 70%.
For the compound `O=C1CC[C@H](c2ccc(N3CCC(CN4CCN(c5ccc(-n6cc(-c7cc(Cl)cc(NS(=O)(=O)N8CC[C@@H](F)C8)c7F)c(-c7ccncc7)n6)c(F)c5)CC4)CC3)nc2)C(=O)N1` [Compound 334, (3R)—N-{5-chloro-3-[1-(4-{4-[(1-{5-[(3R)-2,6-dioxopiperidin-3-yl]pyridin-2-yl}piperidin-4-yl)methyl]piperazin-1-yl}-2-fluorophenyl)-3-(pyridin-4-yl)-1H-pyrazol-4-yl]-2-fluorophenyl}-3-fluoropyrrolidine-1-sulfonamide], the DC50 was less than 10 nM in assay [1] (setting [13]), less than 10 nM in assay [2] (setting [15]), 10 to 50 nM in assay [3] (setting [17]) and less than 10 nM in assay [4] (setting [19]). Further, the Dmax in assay [1] (setting [14]), in assay [2] (setting [16]), in assay [3] (setting [18]) and in assay [4] (setting [20]) was greater than 70% each time.
Regarding `CCCS(=O)(=O)Nc1cccc(-c2nc(C(C)(C)C)sc2-c2ccnc(Nc3cnn(CC4CCN(C(=O)C[C@H]5CCN(c6ccc(C7CCC(=O)NC7=O)cc6)C5)CC4)c3)n2)c1F` (mixture of isomers) [Compound 111, N-(3-{2-tert-butyl-5-[2-({1-[(1-{2-[(3R)-1-{4-[(3RS)-2,6-dioxopiperidin-3-yl]phenyl}pyrrolidin-3-yl]acetyl}piperidin-4-yl)methyl]-1H-pyrazol-4-yl}amino)pyrimidin-4-yl]-1,3-thiazol-4-yl}-2-fluorophenyl)propane-1-sulfonamide], the DC50 in assay [1] (setting [5]) was less than 10 nM; in assay [2] (setting [7]), 50 to 500 nM; in assay [3] (setting [9]) it was 50 to 500 nM; in assay [4] (setting [11]), 50 to 500 nM. Also, the Dmax in assay [1] (setting [6]) was 30 to 70%; in assay [2] (setting [8]), less than 30%; in assay [3] (setting [10]) it was less than 30%; in assay [4] (setting [12]), 30 to 70%.
Regarding `CCN(C)S(=O)(=O)Nc1cc(Cl)cc(-c2cn(-c3ccc(N4CCN(CC5CCN(c6ccc(N7CCC(=O)NC7=O)cn6)CC5)CC4)cn3)nc2-c2ccncc2)c1F` [Compound 313, 1-(6-{4-[(4-{6-[4-(5-chloro-3-{[ethyl(methyl)sulfamoyl]amino}-2-fluorophenyl)-3-(pyridin-4-yl)-1H-pyrazol-1-yl]pyridin-3-yl}piperazin-1-yl)methyl]piperidin-1-yl}pyridin-3-yl)-1,3-diazinane-2,4-dione], the DC50 in assay [1] (setting [13]) was 10 to 50 nM; in assay [2] (setting [15]) it was 10 to 50 nM; in assay [3] (setting [17]) it was 50 to 500 nM; in assay [4] (setting [19]) it was less than 10 nM. The Dmax is greater than 70% in assay [1] (setting [14]), greater than 70% in assay [2] (setting [16]), 30 to 70% in assay [3] (setting [18]) and 30 to 70% in assay [4] (setting [20]).
